# Test results taken from patent EP0021678B1, “1-Sulpho-2-oxoazetidine derivatives, their production and pharmaceutical compositions thereof” (Takeda Chemical Industries, Ltd., priority 1979, dated 1981).
# Key:
# Experiment in all cases: Anti-bacterial test, minimum inhibitory concentration on agar
# Type in all cases: cell-based
# [1] = system: Staphylococcus aureus 1840; details: Staphylococcus aureus 1840; medium TSA
# Source text: (§1) The compound (I) thus obtained is useful as a drug, being active against certain gram-positive and gram-negative bacteria. By way of example, the compounds are active against the following micro-organisms.
# (§2) The media and compounds employed in the anti-bacterial test are as follows: • Media: • TSA = Trypticase soy agar • [Baltimore Biologicals (U.S.A.)] • B-TSA = Blood trypticase soy agar • Compounds: • Compound A = Sodium 3-[2-(2-amino-4-thiazolyl)-2-methoxyiminoacetamido]-2-oxo-azetidine-1-sulphonate • Compound B = Sodium 3-[D(-)-N-(4-ethyl-2,3-dioxo-1-piperazinocarbonyl)-phenyl-glycin- amido]-2-oxoazetidine-1-sulphonate • Compound C = Sodium 3-[D(-)-N-(4-ethyl-2,3-dioxo-1-piperazinocarbonyl)phenylglycinamido]-3-methoxy-2-oxoazetidine-1-sulphonate • Compound D = Sodium 3-[2-(4-ethyl-2,3-dioxo-1-piperazinocarboxamido)-2-(2-amino-4-thiazolyl)-acetamido]-2-oxoazetidine-1-sulphonate • Compound E = Sodium 3-[DL-2-(4-ethyl-2,3-dioxo-1-piperazinocarboxamido)-2-thienylacetamido]-2-oxoazetidine-1-sulphonate • Compound F = Sodium 3-[D-2-(4-ethyl-2,3-dioxo-1-piperazinocarboxamido)-2-thienylacetamido]-2-oxoazetidine-1-sulphonate • Compound G = Sodium 3-[D-2-(4-n-octyl-2,3-dioxo-1-piperazinocarboxamido)-2-phenylacetamido]-2-oxoazetidine-1-sulphonate • Compound H = Sodium 3-[2-(4-n-octyl-2,3-dioxo-1-piperazinocarboxamido)-2-(2-amino-4-thiazolyl)-acetamido]-2-oxoazetidine-1-sulphonate • Compound I = Sodium 3-[D-2-[(2-oxo-3-furfurylideneaminoimidazolidin-1-yl)-carboxamido]-2-phenylacetamido]-2-oxoazetidine-1-sulphonate • Compound J = Sodium 3-[2-(4-n-octyl-2,3-dioxo-1-piperazinocarboxamido)-2-thienylacetamido]-2-oxoazetidine-1-sulphonate • Compound K = Sodium 3-[D-2-[[2-oxo-3-(thiophen-2-aidoimino)-imidazolidin-1-yl]-carboxamido]-2-phenylacetamido]-2-oxoazetidine-1-sulphonate • Compound L = Sodium 3-[2-[(2-oxo-3-furfurylideneaminoimidazolidin-1-yl)-carboxamido]-2-thienylacetamido]-2-oxoazetidine-1-sulphonate
# [2] = system: Streptococcus faecium IFO 3128; details: Streptococcus faecium IFO 3128; medium B—TSA
# Source text: as §1, §2
# Klebsiella pneumoniae DT = details: Klebsiella pneumoniae DT; medium TSA
# Source text: as §1, §2
# [3] = system: Pseudomonas aeruginosa IFO 3455; details: Pseudomonas aeruginosa IFO 3455; medium TSA
# Source text: as §1, §2
# [4] = system: Escherichia coli NIHJ JC—2; details: Escherichia coli NIHJ JC—2; medium TSA
# Source text: as §1, §2
# [5] = system: Proteus morganii IFO 3168; details: Proteus morganii IFO 3168; medium TSA
# Source text: as §1, §2
# [6] = system: Enterobacter cloacae IFO 12937; details: Enterobacter cloacae IFO 12937; medium TSA
# Source text: as §1, §2
# [7] = system: Pseudomonas aeruginosa U 31; details: Pseudomonas aeruginosa U 31; medium TSA
# Source text: as §1, §2
# [8] = system: Streptococcus mitis America; details: Streptococcus mitis America; medium B—TSA
# Source text: as §1, §2
# [9] = system: Staphylococcus aureus 308A—1; details: Staphylococcus aureus 308A—1; medium TSA
# Source text: as §1, §2
# [10] = system: Corynebacterium diphtheriae Toronto; details: Corynebacterium diphtheriae Toronto; medium B—TSA
# Source text: as §1, §2
# [11] = system: Bordetella bronchiseptica Sagami; details: Bordetella bronchiseptica Sagami; medium B—TSA
# Source text: as §1, §2
# [12] = system: Proteus mirabilis IFO 3849; details: Proteus mirabilis IFO 3849; medium TSA
# Source text: as §1, §2
# [13] = system: Serratia marcescens IFO 12648; details: Serratia marcescens IFO 12648; medium TSA
# Source text: as §1, §2
# [14] = system: Staphylococcus aureus FDA209P; details: Staphylococcus aureus FDA209P
# Source text: as §1, §2
# [15] = system: Citrobacter freundii IFO 12681; details: Citrobacter freundii IFO 12681; medium TSA
# Source text: as §1, §2
# [16] = system: Acinetobacter calcoaceticus IFO 13006; details: Acinetobacter calcoaceticus IFO 13006; medium TSA
# Source text: as §1, §2
# [17] = system: Streptococcus pyogenes S—8; details: Streptococcus pyogenes S—8; medium B—TSA
# Source text: as §1, §2
# Candida albicans TA = details: Candida albicans TA; medium TSA
# Source text: as §1, §2
# [18] = system: Streptococcus pneumoniae Type I; details: Streptococcus pneumoniae Type I; medium B—TSA
# Source text: as §1, §2
# [19] = system: Streptococcus pyogenes E—14; details: Streptococcus pyogenes E—14; medium B—TSA
# Source text: as §1, §2
# Escherichia coli O—111 = details: medium TSA
# Source text: as §1, §2
# Escherichia coli T-7 = details: medium TSA
# Source text: as §1, §2
# [20] = system: Proteus vulgaris IFO 3988; details: Proteus vulgaris IFO 3988; medium TSA
# Source text: as §1, §2
structure (smiles),measurement,setting,value
"CCN1CCN(C(=O)N[C@H](C(=O)NC2CN(S(=O)(=O)[O-])C2=O)c2cccs2)C(=O)C1=O.[Na+] (stereo partly drawn) [Compound F, Sodium 3-[D-2-(4-ethyl-2,3-dioxo-1-piperazinocarboxamido)-2-thienylacetamido]-2-oxoazetidine-1-sulphonate]",Minimum inhibitory concentration,[1],25 µg/mL
same,Minimum inhibitory concentration,[2],>100 µg/mL
same,Minimum inhibitory concentration,Klebsiella pneumoniae DT,0.2 µg/mL
same,Minimum inhibitory concentration,[3],6.25 µg/mL
same,Minimum inhibitory concentration,[4],0.78 µg/mL
same,Minimum inhibitory concentration,[5],12.5 µg/mL
same,Minimum inhibitory concentration,[6],50 µg/mL
same,Minimum inhibitory concentration,[7],>100 µg/mL
same,Minimum inhibitory concentration,[8],25 µg/mL
same,Minimum inhibitory concentration,[9],6.25 µg/mL
same,Minimum inhibitory concentration,[10],0.78 µg/mL
same,Minimum inhibitory concentration,[11],>100 µg/mL
same,Minimum inhibitory concentration,[12],0.78 µg/mL
same,Minimum inhibitory concentration,[13],1.56 µg/mL
same,Minimum inhibitory concentration,[14]; medium B—TSA,6.25 µg/mL
same,Minimum inhibitory concentration,[14]; medium TSA,6.25 µg/mL
same,Minimum inhibitory concentration,[15],1.56 µg/mL
same,Minimum inhibitory concentration,[16],25 µg/mL
same,Minimum inhibitory concentration,[17],3.13 µg/mL
same,Minimum inhibitory concentration,Candida albicans TA,>100 µg/mL
same,Minimum inhibitory concentration,[18],6.25 µg/mL
same,Minimum inhibitory concentration,[19],3.13 µg/mL
same,Minimum inhibitory concentration,Escherichia coli O—111,0.2 µg/mL
same,Minimum inhibitory concentration,Escherichia coli T-7,>100 µg/mL
same,Minimum inhibitory concentration,[20],<0.1 µg/mL
